Data on 2 compounds can be found in patent US20220235073A1, “ARTEMISININ-DERIVATIVE N-HETEROCYCLIC CARBENE GOLD(I) HYBRID COMPLEXES” (CENTRE NATIONAL DE LA RECHERCHE SCIENTIFIQUE, priority 2019, published 2022).

Where two headings read alike, the source gives them in different places.

One test deals with Nrf2. As to the kind of experiment: NRF2 transcriptional activity, ARE Reporter Hep G2 cell line. The note with it: ARE Reporter Hep G2 cells, 16 hours, any dose. It counts as cell-based, human. As to the method: The ARE Reporter Hep G2 cell line containing a firefly luciferase gene under the control of ARE stably integrated into Hep G2 cells was used to quantify NRF2 transcriptional activity after 16 hours of treatment with the indicated doses of the different complexes. The results are shown as fold induction of ARE luciferase reporter expression. Dashed line indicates a fold induction of 1 (values >1 mean activation and values <1 mean inhibition).
ARE-reporter-HepG-2 cells were harvested from culture in Growth Medium 1K and they were seeded at a concentration of 40,000 cells/well into white clear-bottom 96-well microplate in 45 μL of Growth Medium 1K without Geneticin. Cells were allowed to attach overnight and then treated with different concentrations of complex 2a (from 0.01 μM to 20 μM), auranofin (from 0.01 μM to 20 μM) or DHA (from 0.01 μM to 3, 5, 10, 20 and 50 μM), and complex (from 0.01 μM to 20 μM). After incubation at 37° C. and 5% CO2 for 16 hours, ONE-Step luciferase assay reagent (100 μL) was added and rock at room temperature for over 15 minutes. Then the luminescence of each well was determined by CLARIOstar microplate reader to quantify induction of ARE. Three independent experiments were performed as biological triplicates. The results are in FIG. 4.

Test [1] has as its system NF-κB transcription factor induced by TNFalpha. As to the kind of experiment: NF-kB transcriptional activity, NF-kB Reporter (Luc)-A549 stable cell line. In kind it is cell-based, human. The note with it: NF-kB Reporter A549 cells, 1 ng/ml TNFα, 7 hours, read-out: IC50, inhibition of NF-κB transcription factor induced by TNFalpha. As to the method: The NF-kB Reporter (Luc)—A549 Stable Cell Line was used to quantify the inhibitory effects of the indicated doses of the molecules of the invention on transcriptional activity of NF-kB activated by 1 ng/ml TNFα (7 hours of treatment).
Luminescence was read using a luminometer and readings were normalized to wells that only contain media to obtain the Relative Luminescence Units (RLUs).
9. NF-kB Transcriptional Activity

Regarding `CC(=O)OC[C@H]1O[C@@H]([S-])[C@H](OC(C)=O)[C@@H](OC(C)=O)[C@@H]1OC(C)=O.CCP(CC)CC.[Au+]` [Auranofin], in the test on Nrf2, the “Effect on activity of Nrf2” value is reported as “activate”. Further, the IC50 in test [1] is 2.96 µM. Regarding `C[C@H]1[C@@H](O)O[C@@H]2O[C@]3(C)CC[C@H]4[C@H](C)CC[C@@H]1[C@@]24OO3` [DHA, dihydroartemisinin], the IC50 in test [1] (Homo sapiens) was found to be 8.91 µM.
